In patent publication US11814375B2, “Heterocyclic compounds” (Hoffmann-La Roche Inc., priority 2019, dated 2023):

The compounds below were run against T1, MAGL (Homo sapiens, UniProt Q99685) (assay: 2-AG assay: MAGL inhibitory activity by hydrolysis of 2-arachidonoylglycerol to arachidonic acid, followed by mass spectrometry). Conditions: 8 μM 2-arachidonoylglycerol, 15 min preincubation and 30 min reaction at RT, arachidonic acid/d8-arachidonic acid ratio by MS.
T1 sequence (Q99685 1-303): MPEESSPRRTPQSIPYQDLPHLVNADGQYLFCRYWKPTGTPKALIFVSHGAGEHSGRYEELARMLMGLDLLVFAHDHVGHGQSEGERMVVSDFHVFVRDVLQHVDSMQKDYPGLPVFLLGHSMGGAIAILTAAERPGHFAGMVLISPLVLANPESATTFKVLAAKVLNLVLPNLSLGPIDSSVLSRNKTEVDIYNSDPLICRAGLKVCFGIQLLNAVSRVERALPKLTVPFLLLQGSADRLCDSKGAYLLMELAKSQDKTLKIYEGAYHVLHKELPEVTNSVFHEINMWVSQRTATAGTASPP
Format: biochemical
Description: Compounds of formula (I) were profiled for MAGL inhibitory activity by determining the enzymatic activity by following the hydrolysis of the natural substrate 2-arachidonoylglycerol (2-AG) resulting in arachidonic acid, which can be followed by mass spectrometry. This assay is hereinafter abbreviated “2-AG assay”.
The 2-AG assay was carried out in 384 well assay plates (PP, Greiner Cat #784201) in a total volume of 20 μL. Compound dilutions were made in 100% DMSO (VWR Chemicals 23500.297) in a polypropylene plate in 3-fold dilution steps to give a final concentration range in the assay from 12.5 μM to […]. 0.25 μL compound dilutions (100% DMSO) were added to 9 μL MAGL in assay buffer (50 mM TRIS (GIBCO, 15567-027), 1 mM EDTA (Fluka, 03690-100 mL), 0.01% (v/v) Tween. After shaking, the plate was incubated for 15 min at RT. To start the reaction, 10 μL 2-arachidonoylglycerol in assay buffer was added. The final concentrations in the assay was […] and 8 μM 2-arachidonoylglyerol. After shaking and 30 min incubation at RT, the reaction was quenched by the addition of 40 μL of ACN containing 4 μM of d8-arachidonic acid. The amount of arachidonic acid was traced by an online SPE system (Agilent Rapidfire) coupled to a triple quadrupole mass spectrometer (Agilent 6460). A C18 SPE cartridge (G9205A) was used in an ACN/water liquid setup. The mass spectrometer was operated in negative electrospray mode following the mass transitions 303.1→259.1 for arachidonic acid and 311.1→267.0 for d8-arachidonic acid. The activity of the compounds was calculated based on the ratio of intensities [arachidonic acid/d8-arachidonic acid].
`Cc1cccc(Oc2ccc(C3CN(C(=O)N4CC[C@@H]5OCC(=O)N[C@@H]5C4)C3)cc2)n1` [Example 26, (+)-(4aR,8aS)-6-[3-[4-[(6-Methyl-2-pyridyl)oxy]phenyl]azetidine-1-carbonyl]-4,4a,5,7,8,8a-hexahydropyrido[4,3-b][1,4]oxazin-3-one] was tested, and the IC50 was 3.9 nM.
Work on `O=C1CO[C@H]2CCN(C(=O)N3CC(c4ccc(Oc5cnccc5Cl)cc4)C3)C[C@H]2N1` [Example 27, (+)-(4aR,8aS)-6-[3-[4-[(4-chloro-3-pyridyl)oxy]phenyl]azetidine-1-carbonyl]-4,4a,5,7,8,8a-hexahydropyrido[4,3-b][1,4]oxazin-3-one] yielded an IC50 of 0.3 nM.
For `O=C1CO[C@H]2CCN(C(=O)N3CC(c4ccc(Oc5ccncc5F)cc4)C3)C[C@H]2N1` [Example 28, (+)-(4aR,8aS)-6-[3-[4-[(3-Fluoro-4-pyridyl)oxy]phenyl]azetidine-1-carbonyl]-4,4a,5,7,8,8a-hexahydropyrido[4,3-b][1,4]oxazin-3-one], the IC50 was 6.3 nM.
`CS(=O)(=O)c1nccc(Oc2ccc(C3CN(C(=O)N4CC[C@@H]5OCC(=O)N[C@@H]5C4)C3)cc2)n1` [Example 29, (+)-(4aR,8aS)-6-[3-[4-(2-Methylsulfonylpyrimidin-4-yl)oxyphenyl]azetidine-1-carbonyl]-4,4a,5,7,8,8a-hexahydropyrido[4,3-b][1,4]oxazin-3-one] gave an IC50 of 90.9 nM.
`Cc1ccc(C)c(Oc2ccc(C3CN(C(=O)N4CC[C@@H]5OCC(=O)N[C@@H]5C4)C3)cc2)n1` [Example 30, (4aR,8aS)-6-[3-[4-[(3,6-Dimethyl-2-pyridyl)oxy]phenyl]azetidine-1-carbonyl]-4,4a,5,7,8,8a-hexahydropyrido[4,3-b][1,4]oxazin-3-one] showed an IC50 of 0.7 nM.
Compound `O=C1CO[C@H]2CCN(C(=O)N3CC(c4ccc(-c5ccn[nH]5)cc4)C3)C[C@H]2N1` [Example 31, (4aR,8aS)-6-[3-[4-(1H-Pyrazol-5-yl)phenyl]azetidine-1-carbonyl]-4,4a,5,7,8,8a-hexahydropyrido[4,3-b][1,4]oxazin-3-one] has an IC50 of 91.9 nM.
`CC(C)(C)Cn1nccc1-c1ccc(C2CN(C(=O)N3CC[C@@H]4OCC(=O)N[C@@H]4C3)C2)cc1` [Example 32a, (4aR,8aS)-6-[3-[4-[2-(2,2-Dimethylpropyl)pyrazol-3-yl]phenyl]azetidine-1-carbonyl]-4,4a,5,7,8,8a-hexahydropyrido[4,3-b][1,4]oxazin-3-one] showed an IC50 of 0.2 nM.
For `CC(C)(C)Cn1ccc(-c2ccc(C3CN(C(=O)N4CC[C@@H]5OCC(=O)N[C@@H]5C4)C3)cc2)n1` [Example 32b, (4aR,8aS)-6-[3-[4-[1-(2,2-Dimethylpropyl)pyrazol-3-yl]phenyl]azetidine-1-carbonyl]-4,4a,5,7,8,8a-hexahydropyrido[4,3-b][1,4]oxazin-3-one], the IC50 was 6.5 nM.
`O=C1CO[C@H]2CCN(C(=O)N3CC(c4ccc(-c5ncccc5Cl)cc4)C3)C[C@H]2N1` [Example 33, (4aR,8aS)-6-[3-[4-(3-Chloro-2-pyridyl)phenyl]azetidine-1-carbonyl]-4,4a,5,7,8,8a-hexahydropyrido[4,3-b][1,4]oxazin-3-one] gave an IC50 of 2.7 nM.
`Cc1nc(C)c(-c2ccc(C3CN(C(=O)N4CC[C@@H]5OCC(=O)N[C@@H]5C4)C3)cc2)o1` [Example 34, (4aR,8aS)-6-[3-[4-(2,4-Dimethyloxazol-5-yl)phenyl]azetidine-1-carbonyl]-4,4a,5,7,8,8a-hexahydropyrido[4,3-b][1,4]oxazin-3-one] was tested, and the IC50 was 22.9 nM.
In the case of `Cc1cc(C)n(-c2ccc(C3CN(C(=O)N4CC[C@@H]5OCC(=O)N[C@@H]5C4)C3)cc2)n1` [Example 35, (4aR,8aS)-6-[3-[4-(3,5-Dimethylpyrazol-1-yl)phenyl]azetidine-1-carbonyl]-4,4a,5,7,8,8a-hexahydropyrido[4,3-b][1,4]oxazin-3-one], the IC50 is reported as 17.4 nM.
`CC(C)(C)Cn1nncc1-c1ccc(C2CN(C(=O)N3CC[C@@H]4OCC(=O)N[C@@H]4C3)C2)cc1` [Example 36, (4aR, 8aS)-6-[3-[4-[3-(2,2-Dimethylpropyl)triazol-4-yl]phenyl]azetidine-1-carbonyl]-4,4a,5,7,8,8a-hexahydropyrido[4,3-b][1,4]oxazin-3-one] was tested, and the IC50 was 0.9 nM.
Compound `CC(C)(C)Cc1nc(-c2ccc(C3CN(C(=O)N4CC[C@@H]5OCC(=O)N[C@@H]5C4)C3)cc2)no1` [Example 37, (4aR,8aS)-6-[3-[4-[5-(2,2-Dimethylpropyl)-1,2,4-oxadiazol-3-yl]phenyl]azetidine-1-carbonyl]-4,4a,5,7,8,8a-hexahydropyrido[4,3-b][1,4]oxazin-3-one] has an IC50 of 2.4 nM.
In the case of `CC(C)(C)Cc1nnc(-c2ccc(C3CN(C(=O)N4CC[C@@H]5OCC(=O)N[C@@H]5C4)C3)cc2)o1` [Example 38, (4aR,8aS)-6-[3-[4-[5-(2,2-Dimethylpropyl)-1,3,4-oxadiazol-2-yl]phenyl]azetidine-1-carbonyl]-4,4a,5,7,8,8a-hexahydropyrido[4,3-b][1,4]oxazin-3-one], the IC50 is reported as 8.5 nM.
With `O=C1CO[C@H]2CCN(C(=O)N3CC(c4ccc(-c5ccnn5CCF)cc4)C3)C[C@H]2N1` [Example 39, (4aR,8aS)-6-[3-[4-[2-(2-Fluoroethyl)pyrazol-3-yl]phenyl]azetidine-1-carbonyl]-4,4a,5,7,8,8a-hexahydropyrido[4,3-b][1,4]oxazin-3-one] the IC50 was 6.7 nM.
With `O=C1CO[C@H]2CCN(C(=O)N3CC(c4ccc(-c5cnn(CCF)c5)cc4)C3)C[C@H]2N1` [Example 40, (4aR,8aS)-6-[3-[4-[1-(2-Fluoroethyl)pyrazol-4-yl]phenyl]azetidine-1-carbonyl]-4,4a,5,7,8,8a-hexahydropyrido[4,3-b][1,4]oxazin-3-one] the IC50 was 73.1 nM.
Compound `Cc1csc(-c2ccc(C3CN(C(=O)N4CC[C@@H]5OCC(=O)N[C@@H]5C4)C3)cc2)n1` [Example 41, (4aR,8aS)-6-[3-[4-(4-Methyl-1,3-thiazol-2-yl)phenyl]azetidine-1-carbonyl]-4,4a,5,7,8,8a-hexahydropyrido[4,3-b][1,4]oxazin-3-one] has an IC50 of 24.6 nM.
Work on `Cn1ccc(-c2ccc(C3CN(C(=O)N4CC[C@@H]5OCC(=O)N[C@@H]5C4)C3)cc2)n1` [Example 42, (4aR,8aS)-6-[3-[4-(1-Methylpyrazol-3-yl)phenyl]azetidine-1-carbonyl]-4,4a,5,7,8,8a-hexahydropyrido[4,3-b][1,4]oxazin-3-one] yielded an IC50 of 153 nM.
For `O=C1CO[C@H]2CCN(C(=O)N3CC(c4ccc(-c5ccc(F)nc5)cc4)C3)C[C@H]2N1` [Example 43, (4aR,8aS)-6-[3-[4-(6-Fluoropyridin-3-yl)phenyl]azetidine-1-carbonyl]-4,4a,5,7,8,8a-hexahydropyrido[4,3-b][1,4]oxazin-3-one], the IC50 was 19.3 nM.
For `O=C1CO[C@H]2CCN(C(=O)N3CC(c4ccc(-c5ccnc(F)c5)cc4)C3)C[C@H]2N1` [Example 44, (4aR,8aS)-6-[3-[4-(2-Fluoropyridin-4-yl)phenyl]azetidine-1-carbonyl]-4,4a,5,7,8,8a-hexahydropyrido[4,3-b][1,4]oxazin-3-one], the IC50 was 67.7 nM.
In the case of `Cn1cc(-c2ccc(C3CN(C(=O)N4CC[C@@H]5OCC(=O)N[C@@H]5C4)C3)cc2)cn1` [Example 45, (4aR,8aS)-6-[3-[4-(1-Methylpyrazol-4-yl)phenyl]azetidine-1-carbonyl]-4,4a,5,7,8,8a-hexahydropyrido[4,3-b][1,4]oxazin-3-one], the IC50 is reported as 134 nM.
`Cn1nccc1-c1ccc(C2CN(C(=O)N3CC[C@@H]4OCC(=O)N[C@@H]4C3)C2)cc1` [Example 46, (4aR,8aS)-6-[3-[4-(2-Methylpyrazol-3-yl)phenyl]azetidine-1-carbonyl]-4,4a,5,7,8,8a-hexahydropyrido[4,3-b][1,4]oxazin-3-one] was tested, and the IC50 was 17.5 nM.
Compound `O=C1CO[C@H]2CCN(C(=O)N3CC(c4ccc(Oc5ccc(F)cc5)cn4)C3)C[C@H]2N1` [Example 47, (4aR,8aS)-6-[3-[5-(4-Fluorophenoxy)-2-pyridyl]azetidine-1-carbonyl]-4,4a,5,7,8,8a-hexahydropyrido[4,3-b][1,4]oxazin-3-one] has an IC50 of 1.4 nM.
Compound `O=C1CO[C@H]2CCN(C(=O)N3CC(c4ccc(Oc5ccc(F)cc5)nc4)C3)C[C@H]2N1` [Example 48, (4aR,8aS)-6-(3-(6-(4-Fluorophenoxy)pyridin-3-yl)azetidine-1-carbonyl)hexahydro-2H-pyrido[4,3-b][1,4]oxazin-3(4H)-one] has an IC50 of 31.5 nM.
